By solubility is commonly meant how much of the substance goes into solution per volume. By IC50 is commonly meant the concentration that gives 50% inhibition. One may read the Tmax as the time from dosing to the highest level. By MRT inf is commonly meant a mean duration of stay, worked out from the concentration-time curve. A word on the Cmax: it is the maximum level reached in the sampled fluid or tissue. For orientation: AUC(0-inf) means total exposure, with the tail of the curve extrapolated.

Data set [1] can be described thus: Inhibition of lipid peroxidation in egg yolk (unknown origin) at 100 uM preheated with compound and FeSO4 for 15 mins followed by TCA/TBA addition measured after 15 mins by absorbance based assay relative to control. Further details: scale not given: the % may be the effect or the level left. The settings on record: time 30.0 min. Type of data set: functional, tissue-based.

Data set [2] can be described thus: Antioxidant activity assessed as clearing rate incubated for 30 mins under dark condition by DPPH free radical scavenging assay. It is filed as functional. For orientation: The DPPH test is a chemical assay of radical scavenging.
The nature of data set [3]: Solubility in methanol incubated for 10 mins. It is filed as physicochemical.
Data set [4] can be described thus: Antioxidant activity assessed as inhibition of superoxide anion scavenging activity incubated for 5 mins in presence of pyrogallol. Type of data set: functional.
Data set [5] in a line: Antioxidant activity assessed as clearing rate incubated for 5 mins in presence of pyrogallol by superoxide anion scavenging assay. Type of data set: functional.
Data set [6] in a line: Solubility in ethyl acetate incubated for 10 mins. Type of data set: physicochemical.
A short description of data set [7]: Solubility in […] incubated for 10 mins. It is filed as physicochemical.
Data set [8] in a line: Antioxidant activity assessed as inhibition of DPPH free radical scavenging activity incubated for 30 mins under dark condition. It is filed as functional.
Data set [9] in a line: Inhibition of lipid peroxidation in egg yolk (unknown origin) preheated with compound and FeSO4 for 15 mins followed by TCA/TBA addition measured after 15 mins by absorbance based assay. It is filed as functional, tissue-based.
A short description of data set [10]: Solubility in water incubated for 10 mins. Type of data set: physicochemical.
In data set [11] the test system is Rattus norvegicus. Put plainly: Hepatoprotective activity in male Sprague-Dawley rat model of CCl4-induced ALI assessed as reduction in yellowing of liver at 100 mg/kg, IG qd pretreated with compound for 7 days followed by CCl4 administration after 2 hrs post-compound treatment measured after 16 hrs post-CCl4 injection. It is filed as functional, organism-based. The settings on record: time 186.0 hrs.

The test system of data set [12] is Rattus norvegicus. Nature of the data set: Hepatoprotective activity in male Sprague-Dawley rat model of CCl4-induced ALI assessed as restoration of serum LDH level at 100 mg/kg, IG qd pretreated with compound for 7 days followed by CCl4 administration after 2 hrs post-compound treatment measured after 16 hrs post-CCl4 injection. It is filed as functional, organism-based. The settings on record: time 186.0 hrs.

A short description of data set [13]: Tmax in overnight-fasted male Sprague-Dawley rat at 150 mg/kg, po measured up to 12 hrs by HPLC analysis. It is filed as ADME, organism-based. The settings on record: in vivo.
The subject of data set [14] is Rattus norvegicus. Nature of the data set: Hepatoprotective activity in male Sprague-Dawley rat model of CCl4-induced ALI assessed as reduction in acute fat deposition at 100 mg/kg, IG qd pretreated with compound for 7 days followed by CCl4 administration after 2 hrs post-compound treatment measured after 16 hrs post-CCl4 injection by oil red O staining based analysis. Type of data set: functional, organism-based. The settings on record: time 186.0 hrs.

Data set [15] concerns Rattus norvegicus. Nature of the data set: Hepatoprotective activity in male Sprague-Dawley rat model of CCl4-induced ALI assessed as restoration of serum ALT level at 100 mg/kg, IG qd pretreated with compound for 7 days followed by CCl4 administration after 2 hrs post-compound treatment measured after 16 hrs post-CCl4 injection. Type of data set: functional, organism-based. The settings on record: time 186.0 hrs.

Data set [16] deals with Rattus norvegicus. Put plainly: Hepatoprotective activity in male Sprague-Dawley rat model of CCl4-induced ALI assessed as reduction in dullness of liver margin at 100 mg/kg, IG qd pretreated with compound for 7 days followed by CCl4 administration after 2 hrs post-compound treatment measured after 16 hrs post-CCl4 injection. It is filed as functional, organism-based. The settings on record: time 186.0 hrs.

Data set [17] deals with Mus musculus. Nature of the data set: Anti-MASH activity in HFD-fed CCl4-treated male C57BL/6 mouse assessed as reduction in inflammation in liver at 150 mg/kg, po qd treated for 4 weeks by H and E/Oil red O staining based analysis. Type of data set: functional, organism-based.
In data set [18] the test system is Mus musculus. Nature of the data set: Anti-MASH activity in HFD-fed CCl4-treated male C57BL/6 mouse assessed as reversal of hepatopancreas somatic indices at 150 mg/kg, po qd treated for 4 weeks. It is filed as functional, organism-based.
A short description of data set [19]: Toxicity in male Sprague-Dawley rat model of CCl4-induced ALI assessed as animal growth at 100 mg/kg, IG qd pretreated with compound for 7 days followed by CCl4 administration after 2 hrs post-compound treatment measured after 16 hrs post-CCl4 injection. Type of data set: organism-based. The settings on record: in vivo, po, 186 h.
For data set [20], the system named is Rattus norvegicus. Put plainly: Hepatoprotective activity in male Sprague-Dawley rat model of CCl4-induced ALI assessed as reduction in white granular fat in liver at 100 mg/kg, IG qd pretreated with compound for 7 days followed by CCl4 administration after 2 hrs post-compound treatment measured after 16 hrs post-CCl4 injection. It is filed as functional, organism-based. The settings on record: time 186.0 hrs.

Data set [21] is described as follows: MRT (0 to infinity) in overnight-fasted male Sprague-Dawley rat at 150 mg/kg, po measured up to 12 hrs by HPLC analysis. It is filed as ADME, organism-based. The settings on record: in vivo.
The subject of data set [22] is Rattus norvegicus. Nature of the data set: Hepatoprotective activity in male Sprague-Dawley rat model of CCl4-induced ALI assessed as reduction in roughened surface in liver at 100 mg/kg, IG qd pretreated with compound for 7 days followed by CCl4 administration after 2 hrs post-compound treatment measured after 16 hrs post-CCl4 injection. It is filed as functional, organism-based. The settings on record: time 186.0 hrs.

The subject of data set [23] is Mus musculus. Nature of the data set: Anti-MASH activity in HFD-fed CCl4-treated male C57BL/6 mouse assessed as reduction in hepatic cholesterol level at 150 mg/kg, po qd treated for 4 weeks by ELISA. It is filed as functional, organism-based. In general terms: In an ELISA, binding on a coated surface is turned into a signal by an enzyme label.
Data set [24] concerns Mus musculus. Put plainly: Anti-MASH activity in HFD-fed CCl4-treated male C57BL/6 mouse assessed as reduction in hepatic triglyceride level at 150 mg/kg, po qd treated for 4 weeks by ELISA. Type of data set: functional, organism-based.
Data set [25] concerns Rattus norvegicus. Nature of the data set: Hepatoprotective activity in male Sprague-Dawley rat model of CCl4-induced ALI assessed as reduction in vacuoles at 100 mg/kg, IG qd pretreated with compound for 7 days followed by CCl4 administration after 2 hrs post-compound treatment measured after 16 hrs post-CCl4 injection by H and E staining based analysis. It is filed as functional, organism-based. The settings on record: time 186.0 hrs.

The test system of data set [26] is Rattus norvegicus. Put plainly: Hepatoprotective activity in male Sprague-Dawley rat model of CCl4-induced ALI assessed as restoration of serum AST level at 100 mg/kg, IG qd pretreated with compound for 7 days followed by CCl4 administration after 2 hrs post-compound treatment measured after 16 hrs post-CCl4 injection. The settings on record: time 186.0 hrs. It is filed as functional, organism-based.

Data set [27] is described as follows: Cmax in overnight-fasted male Sprague-Dawley rat at 150 mg/kg, po measured up to 12 hrs by HPLC analysis. It is filed as ADME, organism-based. The settings on record: in vivo.
The nature of data set [28]: Terminal half life in overnight-fasted male Sprague-Dawley rat at 150 mg/kg, po measured up to 12 hrs by HPLC analysis. It is filed as ADME, organism-based. The settings on record: in vivo, read-out: beta t1/2 (converted).
Data set [29] deals with Mus musculus. Nature of the data set: Anti-MASH activity in HFD-fed CCl4-treated male C57BL/6 mouse assessed as reduction in fat accumulation in liver at 150 mg/kg, po qd treated for 4 weeks by Oil red O staining based analysis. It is filed as functional, organism-based.
Data set [30] can be described thus: Apparent volume of distribution during terminal phase in overnight-fasted male Sprague-Dawley rat at 150 mg/kg, po measured up to 12 hrs by HPLC analysis. Type of data set: ADME, organism-based. The settings on record: in vivo, read-out: Vz/F.
Data set [31] relates to Mus musculus. Put plainly: Anti-MASH activity in HFD-fed CCl4-treated male C57BL/6 mouse assessed as reduction in steatosis in liver at 150 mg/kg, po qd treated for 4 weeks by H and E/Oil red O staining based analysis. Type of data set: functional, organism-based.
Data set [32] deals with Mus musculus. Put plainly: Anti-MASH activity in HFD-fed CCl4-treated male C57BL/6 mouse assessed as reduction in hepatocyte ballooning in liver at 150 mg/kg, po qd treated for 4 weeks by H and E/Oil red O staining based analysis. It is filed as functional, organism-based.
Data set [33] in a line: Toxicity in male Sprague-Dawley rat model of CCl4-induced ALI assessed as body weight change at 100 mg/kg, IG qd pretreated with compound for 7 days followed by CCl4 administration after 2 hrs post-compound treatment measured after 16 hrs post-CCl4 injection. The settings on record: in vivo, po, 186 h. Type of data set: organism-based.
Data set [34] is described as follows: AUC (0 to infinity) in overnight-fasted male Sprague-Dawley rat at 150 mg/kg, po measured up to 12 hrs by HPLC analysis. The settings on record: in vivo. Type of data set: ADME, organism-based.
Data set [35] can be described thus: Apparent clearance during terminal phase in overnight-fasted male Sprague-Dawley rat at 150 mg/kg, po measured up to 12 hrs by HPLC analysis. It is filed as ADME, organism-based. The settings on record: in vivo, read-out: CLz/F (converted).

In brackets after ≈: the same amount, converted by molar mass. Activity calls are given as the source filed them. No cut-off for these calls is given here. A value given as a limit tells only on which side of the number the result lay.

`COc1cc(C2Oc3cc([C@H]4Oc5cc(O)cc(O)c5C(=O)[C@@H]4O)ccc3OC2CSSCC2Oc3ccc([C@H]4Oc5cc(O)cc(O)c5C(=O)[C@@H]4O)cc3O[C@H]2c2ccc(O)c(OC)c2)ccc1O` (single isomer, unassigned): the Activity in [1] was 75.2%; in data set [2], 53.9%; in data set [5] it was 40.6%. Further, the solubility is 246 mg/mL (≈ 247 mM) in [3], 523 mg/mL (≈ 526 mM) in data set [6] and above 1000 mg/mL in data set [7]. Further, the IC50 is above 200 µM in data set [4], 158 µM in data set [8] and 28.7 µM in [9]. The compound also came in with a solubility at 10 min in [10] of 0.19 mg/mL (≈ 0.191 mM).
With `COc1cc([C@@H]2Oc3cc([C@H]4Oc5cc(O)cc(O)c5C(=O)[C@@H]4O)ccc3OC2CSC(C)=O)ccc1O` (stereo not given in full), the Activity in [1] came out at 83.8%; in [2], 39.3%; in data set [5] it was 36.6%. Also, the solubility in data set [3], in [6] and in [7] was above 1000 mg/mL each time. The IC50 in [4] is above 200 µM; in [8], above 200 µM; in data set [9], 24 µM. The compound also returned a solubility at 10 min in [10] of 0.3 mg/mL (≈ 0.555 mM).
Regarding `COc1cc([C@@H]2Oc3cc([C@H]4Oc5cc(O)cc(O)c5C(=O)[C@@H]4O)ccc3OC2CO)ccc1O` (stereo not given in full), the outcome in the data set with Rattus norvegicus [11], with Rattus norvegicus [12], in the data set with Rattus norvegicus [14], in the data set on Rattus norvegicus [15], in the data set on Rattus norvegicus [16] and in the data set on Mus musculus [17] was Active. For the same compound, the result in the data set with Mus musculus [18], in the data set on Rattus norvegicus [20], with Rattus norvegicus [22], in the data set on Mus musculus [23], in the data set with Mus musculus [24] and in the data set with Rattus norvegicus [25] was Active. Further, the outcome with Rattus norvegicus [26], in the data set with Mus musculus [29], in the data set on Mus musculus [31] and with Mus musculus [32] was Active. The Activity in data set [1] is 39.6%; in [2], 47.2%; in data set [19] it was “Non-toxic”; in [5] it was 34.6%; in [33], “Non-toxic”. The Tmax in data set [13] was 1.02 h. Besides, the results for the solubility in [3], in data set [6] and in [7] were 10.6 mg/mL (≈ 22 mM), 15.4 mg/mL (≈ 31.9 mM) and 367 mg/mL (≈ 761 mM), respectively. Besides, the IC50 in data set [4] was above 200 µM; in data set [8] it was above 200 µM; in [9] it was above 100 µM. In data set [21], this compound had an MRT inf of 5.22 h. Moreover, in data set [27], the Cmax stood at 194 ng/mL. Moreover, the half-life in data set [28] is 2.45 h. Besides, the Vd/F in data set [30] is 447 L. In data set [10], this compound returned a solubility at 10 min of 0.14 mg/mL (≈ 0.29 mM). In data set [34], this compound had an AUC(0-inf) of 494 ng·h/mL. The CL/F in data set [35] was 1250 mL/min.

The record behind these values is ChEMBL document CHEMBL6182935, “Discovery of a Novel Silybin Derivative for the Treatment of Metabolic Dysfunction-Associated Steatohepatitis” (J Med Chem, 2025).
